Results on 98 compounds are retold here after ChEMBL document CHEMBL3507680, “University of Dundee, Gates Library screen for HepG2 cell viability”.

The data set in a line: Human HepG2 cell viability assay in 384 well format. As to conditions: HepG2 cells, read-out: Inhibition. Format: toxicity, cell-based. Also on record: dose 125 nL, time 70.5 hour; concentration not given beside the values.
As for `NCCCNS(=O)(=O)Cc1ccc(Br)cc1`, the cytotoxicity at 70.5 h was -9.57%. For the compound `c1cncc(CN2CCCC3(COCCN(c4cnccn4)C3)C2)c1` (stereo not drawn), the cytotoxicity at 70.5 h was -5.18%.

With `c1cncc(N2CCCC3(CCN(CCN4CCCC4)CC3)C2)c1`, the cytotoxicity at 70.5 h is -1.3%. For `O=C(CSc1ccccc1)N1C[C@H]2CC[C@@H]1CN(Cc1ccncc1)C2`, the cytotoxicity at 70.5 h was -4.9%. Regarding `COc1ccccc1CN1CC[C@]2(C[C@@H](OCC(=O)N(C)C)CO2)C1`, the cytotoxicity at 70.5 h is -3.75%. With `COc1cccc(CN(C)C(=O)c2csc(-c3nnc[nH]3)n2)c1`, the cytotoxicity at 70.5 h is -1.87%. In the case of `O=C(c1cccs1)N1CCC[C@]2(C[C@@H](OCc3ccncc3)CO2)C1`, the cytotoxicity at 70.5 h was -4.03%. For `Cc1cnc(CC2COCCN(C(=O)CN3CCOCC3)C2)cn1` (stereo not drawn) the value was -4.65%. Take `CS(=O)(=O)CCCN(CCCO)C1CCc2ccccc21` (stereo not drawn): the cytotoxicity at 70.5 h was -107%. As for `COc1nn(C)c2c1CCCN(C(=O)c1cccc(C)n1)C2`, the cytotoxicity at 70.5 h is -2.8%.

In the case of `CC(C)[C@H]1CN(Cc2ccncc2)C[C@@H]1NC(=O)C1(C#N)CCOCC1`, the cytotoxicity at 70.5 h was -1.7%. Regarding `CC1CCCN(C(=O)CNC(=O)c2ccoc2)C1` (stereo not drawn), the cytotoxicity at 70.5 h is 49.9%. Regarding `Fc1ccc(CN2C[C@@H]3OCCN(CCN4CCCC4)[C@@H]3C2)cc1`, the cytotoxicity at 70.5 h was -6.53%. As for `O=C(Cc1ccsc1)N1CCCC(c2cc(C(F)F)n3ncnc3n2)C1` (stereo not drawn), the figure is 14.6%. For `CN(CCCNS(=O)(=O)N1CCC2(CC1)OCCO2)c1ccccc1` the value was 22.7%.

On to `CN1CC2(CCN(C(=O)c3ccc4c(=O)n(C)cnc4c3)CC2)CC1=O`, for which the cytotoxicity at 70.5 h is -6.3%. As for `Clc1cncc(NCc2cccc(COC3CCOCC3)c2)n1`, the cytotoxicity at 70.5 h is -6.08%. For `Cc1ccccc1CN(C)C(=O)Cn1nc(-c2ccc(F)cc2)oc1=O`, the cytotoxicity at 70.5 h came to 29.6%. `CN(C)CCO[C@H]1CN(Cc2ccc3c(c2)OCO3)[C@@H]2COC[C@H]12`: the cytotoxicity at 70.5 h was -4.2%.

As to `c1coc(CN2C[C@H](OCC3CCOCC3)[C@H]3COC[C@H]32)c1`, the cytotoxicity at 70.5 h is -15.3%. Turning to `CCN1CC2(CCC1=O)CCN(C(=O)c1cn3cccnc3n1)CC2`, the cytotoxicity at 70.5 h was 34.9%.

With `CCS(=O)(=O)N1CC[C@H](OC)[C@H]2CN(Cc3ccncc3)C[C@H]21`, the cytotoxicity at 70.5 h was -3.99%. Consider `Cc1cc(C)n(C2CN(CCc3ccccn3)C2)n1`, for which the cytotoxicity at 70.5 h was -11.1%. In the case of `N#Cc1ccc(CN2C[C@@H]3OCC(=O)N[C@@H]3C2)cc1`, the cytotoxicity at 70.5 h is -5.15%. As for `O=C1COC2(CCN(Cc3ccoc3)CC2)CN1CCn1cccn1`, the cytotoxicity at 70.5 h was -2.81%. For `Cc1ccc(CC(=O)N2CCN(c3nccs3)CC2)s1` the value was 14.7%.

As to `NC(=O)C(NCc1ccc(Cl)s1)c1ccccc1` (stereo not drawn), the cytotoxicity at 70.5 h is -7.49%. `CN(C)C(C(=O)NCCSc1ncn[nH]1)c1cccc(F)c1` (stereo not drawn): the cytotoxicity at 70.5 h is 28.8%. Take `Cc1noc(CNC(=O)CN(C)c2nc3c(F)cccc3s2)n1`: the cytotoxicity at 70.5 h stood at 28.5%. As for `CCc1ccc(C(=O)N2CCCC(c3noc(CC)n3)C2)o1` (stereo not drawn), the figure is -2.81%; as for `O=C(C1CCS(=O)(=O)CC1)N1C[C@H]2CC[C@@H]1CN(Cc1ccccc1)C2`, 10.4%. In the case of `COCc1nn(CC2CC2)c2c1CN(C(=O)c1ccno1)CC2`, the cytotoxicity at 70.5 h was -3.21%. For `Cc1cc(CN2CCN(c3ccc4nncn4n3)C(C)C2)on1` (stereo not drawn) the value was 20%; for `COC(=O)N1CCc2ccccc2C1C(=O)NCc1ccncc1` (stereo not drawn), -3.87%; for `CCN1CCC(CNC(=O)c2cc(Cl)c[nH]2)CC1`, -8.09%. For `CCCc1cncnc1N1CCC(NCc2ccncc2)CC1` the value was -13.1%.

Turning to `CCNc1cc2c(nn1)CCN(C(=O)c1ccnc(C)n1)C2`, the cytotoxicity at 70.5 h was -2.85%. In the case of `Cn1cnc2c1CCN(Cc1csc(-c3ccco3)n1)C2`, the cytotoxicity at 70.5 h stood at 15.3%. For the compound `COc1ccc(OCCNc2cccc(C(=O)N3CCOCC3)c2)cc1`, the cytotoxicity at 70.5 h is -3.69%. `O=C(NCC1(Sc2ccccc2)CC1)c1ccc(=O)[nH]n1`: the cytotoxicity at 70.5 h was -6.34%. `O=C(NCCCN1CCCCC1)c1n[nH]c(=O)c2ccccc12`: the cytotoxicity at 70.5 h came to 25%. Consider `CCOC(=O)N1CCN(C(=O)c2sc(-c3ccccc3)nc2C)CC1`, for which the cytotoxicity at 70.5 h was 48.7%.

As for `CC1CCCN(S(=O)(=O)NCCCn2ccc3ccccc32)C1` (stereo not drawn), the cytotoxicity at 70.5 h is -9.54%.

Turning to `CCc1noc(C(C)N2CCN(Cc3cnc(C)cn3)CC2)n1` (stereo not drawn), the cytotoxicity at 70.5 h turned out to be 16.3%. In the case of `CCN(CC(C)C#N)C(=O)CSc1ccc(C(F)(F)F)cn1` (stereo not drawn), the cytotoxicity at 70.5 h is -3.1%. Regarding `COC(=O)C1CCCN1CC(=O)NCc1ccc(OCC(N)=O)cc1` (stereo not drawn), the cytotoxicity at 70.5 h was determined as 4.54%. In the case of `Cc1cccc(C(C)(C)CNC(=O)CN(C)S(=O)(=O)c2cccnc2)c1`, the cytotoxicity at 70.5 h was -15.3%. Turning to `O=S(=O)(CC1CCOCC1)NCc1ncc(-c2ccccc2)o1`, the cytotoxicity at 70.5 h is -5.19%. For `CC(NC(=O)CSCC#N)c1cccc(Cl)c1` (stereo not drawn) the value was -9.11%; for `Cc1nc(C)n(Cc2cccc(NC(=O)N(C)CCC(C)O)c2)n1` (stereo not drawn), -7.61%; for `CSCC(C)(O)CNC(=O)c1ccc(F)cc1Cl` (stereo not drawn), 0.551%.

As for `CNc1ncc2c(n1)CN(C1CCCC1)C2=O`, the cytotoxicity at 70.5 h was -9.4%. On to `Cc1ncc(CN)c(-c2cn(C)c3ccccc23)n1`, for which the cytotoxicity at 70.5 h was -7.92%. Turning to `CCOC(=O)N1CCC2(CC1)N=C(CCC(C)C)NC2=O`, the cytotoxicity at 70.5 h was -1.58%. Take `CCN1CCC(NC(=O)CN2CCc3c(ncn3C)C2)CC1`: the cytotoxicity at 70.5 h turned out to be 2.11%. With `COc1ccccc1CNC(C)c1ccc(-n2ccnc2)cc1` (stereo not drawn), the cytotoxicity at 70.5 h was 32.7%.

As to `N#Cc1cccc(N2CCC3(CCC(=O)N(CC4CCCO4)C3)CC2)n1` (stereo not drawn), the cytotoxicity at 70.5 h was 0.613%. In the case of `CCc1noc(CN2CCN(c3nccs3)CC2)n1`, the cytotoxicity at 70.5 h stood at 10.7%.

Take `CC1CCN(CC2(O)CCCN(Cc3cccc(F)c3F)C2=O)CC1` (stereo not drawn): the cytotoxicity at 70.5 h was determined as 1.43%.

On to `NS(=O)(=O)NCc1cc(-c2ccco2)n(CC(F)(F)F)n1`, for which the cytotoxicity at 70.5 h is -5.08%.

On to `CC(C)(C)n1cc(C2=CCN(CCc3ccccn3)CC2)cn1`, for which the cytotoxicity at 70.5 h is -5.94%. For the compound `COc1ccc(OC)c(C(C)NS(=O)(=O)c2cnn(C)c2)c1` (stereo not drawn), the cytotoxicity at 70.5 h is -12%. As for `COCCN1CCN(C(=O)N2CCCC2)Cc2ccc(C)nc21`, the cytotoxicity at 70.5 h turned out to be 24.9%. Consider `CCC[C@H]1CN(Cc2ccc(N(C)C)nc2)C[C@@H]1NC(=O)CSC`, for which the cytotoxicity at 70.5 h was -6.28%.

Consider `CC(C)(C)c1nc(CC(=O)N2CCCC(n3cncn3)C2)cs1` (stereo not drawn), for which the cytotoxicity at 70.5 h is -1.77%. For the compound `CSC1(CNC(=O)c2cccc(-n3cccn3)c2)CCOCC1`, the cytotoxicity at 70.5 h worked out at 1.71%.

On to `Cc1cn(CC(=O)NC2CCC3(CC2)OCCO3)c2ccccc12`, for which the cytotoxicity at 70.5 h was -6.58%.

For `COCc1noc(-c2cc(Cl)c3c(c2)OCCCO3)n1`, the cytotoxicity at 70.5 h was -8.58%. For `O=C(NCCN1CCCCC1)c1nc(-c2cccc3[nH]ccc23)no1` the value was 13.5%; for `Cc1ccccc1C(C(=O)NCCn1cccc1)N(C)C` (stereo not drawn), -9.04%. Regarding `Cc1cc(CN(C)C(=O)C2CC(=O)N(Cc3cccnc3)C2)on1` (stereo not drawn), the cytotoxicity at 70.5 h is -9.4%. Regarding `Cc1cc(C)n(CC(C)Nc2ncnc3c2CCNC3)n1` (stereo not drawn), the cytotoxicity at 70.5 h is -11.9%. For the compound `COCCN1C[C@H]2CCN(C(C)=O)CC[C@H]2S1(=O)=O`, the cytotoxicity at 70.5 h is 0.94%. With `CCC(C)(C)C(=O)N1C[C@@H]2C[C@@H](c3nnc(C)[nH]3)O[C@@H]2C1`, the cytotoxicity at 70.5 h was -8.87%. As to `O=c1[nH]c2c(c(=O)n1C1CCCCC1)CCC2Nc1ccccc1` (stereo not drawn), the cytotoxicity at 70.5 h stood at 6.54%. For `CC(C)NC(=O)c1nc(Cn2c(C(F)(F)F)nc3ccccc32)no1` the value was 14.5%. `CCCN1CCC(NC(=O)c2ccnc(SCC)c2)CC1`: the cytotoxicity at 70.5 h was -0.521%.

For the compound `CCCOC(=O)N1CCCn2nc(C(=O)Nc3ccccc3)cc2C1`, the cytotoxicity at 70.5 h is -9.85%.

For `CCn1cnnc1CNC(=O)NCC(C)(CC)N1CCOCC1` (stereo not drawn), the cytotoxicity at 70.5 h was -9.65%. For `Cc1ccn(-c2ccnc(N3CCC(N4CCCCC4)CC3)n2)n1`, the cytotoxicity at 70.5 h is -13.2%. Turning to `CC(C)(C)NC(=O)C1CSCN1S(=O)(=O)c1ccc(F)cc1` (stereo not drawn), the cytotoxicity at 70.5 h is -1.49%.

Regarding `O=S(=O)(C1CC1)N1CCn2c(Cn3cncn3)cnc2C1`, the cytotoxicity at 70.5 h was found to be 0.357%. In the case of `CC(C)c1noc(-c2ccc(NC(=O)NCC(O)C(C)C)cc2)n1` (stereo not drawn), the cytotoxicity at 70.5 h is -7.09%. For `CCN(Cc1ccc(C(C)C)cc1)C(=O)c1csc(CN(C)C)n1`, the cytotoxicity at 70.5 h was 7.36%. For the compound `O=C(Cc1ccsc1)N1CCC[C@@H]1Cn1c(=O)oc2ccccc21`, the cytotoxicity at 70.5 h was -5.78%.

Turning to `O=C(c1cn(CCN2CCCCC2)nn1)N1CCCO1`, the cytotoxicity at 70.5 h was -6.13%. On to `CCN1C(=O)C(c2ccccc2)CC12CCN(c1ncccn1)CC2` (stereo not drawn), for which the cytotoxicity at 70.5 h is -18.6%.

Turning to `O=c1cc(N2CCCC2)cnn1Cc1noc(C2CCCO2)n1` (stereo not drawn), the cytotoxicity at 70.5 h turned out to be 7.8%. Regarding `Cc1cc(CN2CCN(C(=O)CCc3cccc(F)c3F)CC2)on1`, the cytotoxicity at 70.5 h is -6.52%.

In the case of `CC(C)c1cc(C(=O)N2Cc3ccccc3CC2C(=O)O)nn1C` (stereo not drawn), the cytotoxicity at 70.5 h is -2.03%. Consider `COC(=O)NCC(=O)N1CCCCC1c1nc2cc(F)ccc2[nH]1` (stereo not drawn), for which the cytotoxicity at 70.5 h is 1.25%. For `O=C(NC1CCCC1)O[C@H]1COCCN(c2nc3ccccc3s2)C1`, the cytotoxicity at 70.5 h was found to be 3.92%.

Regarding `Fc1cnc(N2CCOC3(CCN(Cc4cccs4)CC3)C2)nc1`, the cytotoxicity at 70.5 h was -6.76%. As for `Cn1ncc(N2CCC(CNC(=O)[C@@H](N)C3CCCCC3)CC2)cc1=O`, the figure is 3.03%. Regarding `COc1ccc(-c2cc(C3CCCCCN3S(=O)(=O)N(C)C)on2)cc1` (stereo not drawn), the cytotoxicity at 70.5 h was found to be 8.12%. Regarding `Cc1nc(CC(=O)NCc2csc(N3CCCC3)n2)cs1`, the cytotoxicity at 70.5 h is -4.47%. As for `CN(Cc1cnn(C)c1)C(=O)C(c1ccccc1)N1CCSCC1` (stereo not drawn), the cytotoxicity at 70.5 h was -9.84%.

In the case of `O=C(COC1CCCCC1)N1CCN(C(=O)Cc2ccccn2)CC1`, the cytotoxicity at 70.5 h was -6.92%.
